# System: leukotriene LTD4 aerosol challenge in guinea-pigs
# Assay: guinea-pig aerosol test (LTD4 aerosol challenge, onset of dyspnea)
# Type: in vivo
# Conditions: for ED50: Cavia porcellus, oral administration, solution in poly(ethylene glycol), predosed generally 1 hour before LTD4 aerosol, read-out: ED50 (protection against LTD4-induced dyspnea)
# Experimental: According to this procedure, guinea-pigs are predosed with test compound as a solution in poly(ethylene glycol) (generally 1 hour) before an aerosol challenge of leukotriene LTD4 (starting with 2 ml of a 30 microgram/ml solution) and the effect of the test compound on the average time of leukotriene initiated change in breathing pattern (such as onset of dyspnea) recorded and compared with that in undosed-, control guinea-pigs. Percent protection engendered by a test compound was calculated from the time delay to the onset of dyspnea compared to that for control animals.
Compound,ED50,"untoward side-effects (oral, at several multiples of the minimum effective dose)"
"COc1cc(C(=O)NS(=O)(=O)c2ccccc2C)ccc1Cc1cn(C)c2ccc(C(=O)NC[C@H](C)CC(F)(F)F)cc12 [Example 2, (R)-3-Methoxy-4-[1-methyl-5-(2-methyl-4,4,4-trifluorobutylcarbamoyl)indol-3-ylmethyl]-N-(2-methylphenylsulfonyl)benzamide]",1.1 µmol/kg,without any indication of untoward side-effects
COc1cc(C(=O)NS(=O)(=O)c2ccccc2C)ccc1Cc1cn(C)c2ccc(C(=O)NCC3CCCC3)cc12 [reference compound],19.2 µmol/kg,
